Results reported in US12115208B2, “Small-molecule adjuvants for antibiotics to address antibiotic resistance” (HIGH POINT UNIVERSITY, priority 2017, dated 2024).
Like-named read-outs stand apart in the source and are kept apart here. Blank lines part the entries; values can stand above or below the compound they belong to.

Legend:
S. aureus 43300 (MRSA) = assay: Antibiotic repotentiation (antibiotic MIC with/without compound); format: cell-based, Staphylococcus aureus
Protocol: (§1) The overnight culture was diluted into fresh CAMHB to a concentration of 5×10^5 CFU/ml. […] On the same plate, a standard microdilution MIC with the tested antibiotics and no added compound was also performed to compare the antibiotic MIC in the presence and absence of compound. […] Fold reductions were calculated by dividing the MIC of the antibiotic without compound by the MIC of the antibiotic in the presence of compound.
(§2) The compounds were then analyzed for antibiotic repotentiation activity. […] The tested strains included USA300, which is a common and particularly virulent strain of community-acquired MRSA.

S. aureus USA100 (MRSA) = assay: as above; format: cell-based, Staphylococcus aureus; details: MRSA USA100; for Fold Reduction: antibiotic MIC
Protocol: as §1

[1] = system: S. aureus NR-49120 (VRSA); assay: as above; format: cell-based, Staphylococcus aureus; details: VRSA NR-49120; for Fold Reduction: antibiotic MIC
Protocol: as §1

S. aureus USA300 (MRSA) = assay: as above; format: cell-based, Staphylococcus aureus; details: MRSA USA300
Protocol: as §1, §2

[2] = system: S. epidermidis ATCC 49461 biofilm; assay: Biofilm inhibition, crystal violet assay; format: cell-based, Staphylococcus epidermidis; details: read-out: Inhibition of biofilm formation IC50
Protocol: A standard static crystal violet assay was used to quantify biofilm inhibition.^45 Cultures of S. aureus or S. epidermidis were grown overnight in TSBG (tryptic soy broth with 5% glucose) at 37° C. with shaking. These cultures were used to inoculate fresh TSBG to a calculated optical density of 0.01 at 600 nm (OD600). […] Untreated aliquots were used as a positive control and water served as a negative control. 100 μl of these suspensions were added to the wells of a 96-well polyvinylchloride microtiter plate. […] After incubation, media was discarded and the plates were washed with water to remove non-adherent cells. Adherent biofilms were stained with 110 μl of crystal violet (0.1% in water) and incubated at room temperature for thirty minutes. The crystal violet staining solution was discarded and plates were washed with water to remove excess stain. The resulting stained biofilms were solubilized with 200 μL of 95% ethanol for 10 minutes. 125 μl of the ethanol solutions were transferred to a clear polystyrene microtiter plate for evaluation. Absorbance at 540 nm was recorded using a BioTek Synergy H1 microplate reader. The absorbance of the negative control lanes was subtracted from the experimental values to account for background staining. Percent inhibition was calculated by comparison of the absorbance values of control versus treated wells under identical conditions.

[3] = system: S. aureus ATCC 43300 (MRSA); assay: Minimum inhibitory concentration, broth microdilution; format: cell-based, Staphylococcus aureus; details: compound alone; S. aureus ATCC 43300 (MRSA); CAMHB, 18 h; read-out: MIC
Protocol: as §2

[4] = +50 μM compound, S. aureus 43300 (MRSA)
[5] = oxacillin MIC, +50 μM compound, S. aureus 43300 (MRSA)
[6] = +31.25 μM compound, S. aureus 43300 (MRSA)
[7] = oxacillin MIC, +31.25 μM compound, S. aureus 43300 (MRSA)
[8] = Staphylococcus epidermidis, ATCC49461, 30 h

Compound: CCCCCCCCNC1=Nc2ccccc2Oc2ccc(Cl)cc21 [II-9]
Oxacillin MIC (S. aureus 43300 (MRSA); [4]): 32 µg/mL
Fold Reduction (S. aureus 43300 (MRSA); [5]): 1

Compound: CN[C@H](CC(C)C)C(=O)N[C@H]1C(=O)N[C@@H](CC(N)=O)C(=O)N[C@H]2C(=O)N[C@H]3C(=O)N[C@H](C(=O)N[C@H](C(=O)O)c4cc(O)cc(O)c4-c4cc3ccc4O)[C@H](O)c3ccc(c(Cl)c3)Oc3cc2cc(c3O[C@@H]2O[C@H](CO)[C@@H](O)[C@H](O)[C@H]2O[C@H]2C[C@](C)(N)[C@H](O)[C@H](C)O2)Oc2ccc(cc2Cl)[C@H]1O [Vancomycin]
MIC of antibiotic (S. aureus USA100 (MRSA); +Loratadine 25 μM): 2 µg/mL
MIC of antibiotic (S. aureus USA100 (MRSA); +Loratadine 50 μM): 2 µg/mL
Fold Reduction (S. aureus USA100 (MRSA); +Loratadine 25 μM): 1
Fold Reduction (S. aureus USA100 (MRSA); +Loratadine 50 μM): 1
MIC of antibiotic (S. aureus USA100 (MRSA); antibiotic alone): 2 µg/mL
MIC of antibiotic ([1]; +Loratadine 25 μM): 512 µg/mL
MIC of antibiotic ([1]; +Loratadine 50 μM): 128 µg/mL
Fold Reduction ([1]; +Loratadine 25 μM): 2
Fold Reduction ([1]; +Loratadine 50 μM): 8
MIC of antibiotic ([1]; antibiotic alone): 1024 µg/mL
MIC of antibiotic (S. aureus 43300 (MRSA); +Amoxapine (150 μM), S. aureus 43300 (MRSA)): 2 µg/mL
MIC of antibiotic (S. aureus 43300 (MRSA); +Loratadine 25 μM, MRSA 43300): 1 µg/mL
MIC of antibiotic (S. aureus 43300 (MRSA); +Loratadine 50 μM, MRSA 43300): 1 µg/mL
Fold Reduction (S. aureus 43300 (MRSA); antibiotic MIC, +Amoxapine (150 μM), S. aureus 43300 (MRSA)): 1
Fold Reduction (S. aureus 43300 (MRSA); antibiotic MIC, +Loratadine 25 μM, MRSA 43300): 1
Fold Reduction (S. aureus 43300 (MRSA); antibiotic MIC, +Loratadine 50 μM, MRSA 43300): 1
MIC of antibiotic (S. aureus 43300 (MRSA); antibiotic alone, no compound, S. aureus 43300 (MRSA)): 2 µg/mL
MIC of antibiotic (S. aureus 43300 (MRSA); antibiotic alone, S. aureus ATCC 43300 (MRSA)): 1 µg/mL
MIC of antibiotic (S. aureus USA300 (MRSA); +Loratadine 25 μM): 1 µg/mL
MIC of antibiotic (S. aureus USA300 (MRSA); +Loratadine 50 μM): 1 µg/mL
MIC of antibiotic (S. aureus USA300 (MRSA); antibiotic alone): 1 µg/mL

Compound: COc1ccnc2c1ccc1c(OC)ccnc12 [Compound V-12]
IC50 ([2]; 30 h): > 100 µM
Oxacillin MIC (S. aureus 43300 (MRSA); +7.8 μM compound, S. aureus 43300 (MRSA)): 4 µg/mL
Fold Reduction (S. aureus 43300 (MRSA); oxacillin MIC, +7.8 μM compound, S. aureus 43300 (MRSA)): 8
MIC [3]: 31.25 µM

Compound: NC1=Nc2ccccc2Oc2ccc(Cl)cc21 [II-7]
Oxacillin MIC (S. aureus 43300 (MRSA); [4]): 32 µg/mL
Fold Reduction (S. aureus 43300 (MRSA); [5]): 1

Compound: c1cnc2c(c1)ccc1cccnc12 [Compound V-4]
IC50 ([2]; 30 h): 51.8 µM
Oxacillin MIC (S. aureus 43300 (MRSA); [6]): 8 µg/mL
Fold Reduction (S. aureus 43300 (MRSA); [7]): 4
MIC [3]: 125 µM

Compound: Clc1ccnc2c1ccc1c(Cl)ccnc12 [Compound V-10]
IC50 ([2]; 30 h): 27.3 µM
Oxacillin MIC (S. aureus 43300 (MRSA); +75 μM compound, S. aureus 43300 (MRSA)): 32 µg/mL
Fold Reduction (S. aureus 43300 (MRSA); oxacillin MIC, +75 μM compound, S. aureus 43300 (MRSA)): 1
MIC [3]: >500 µM

Compound: Clc1ccc2c(c1)C(NC1CCCCC1)=Nc1ccccc1O2 [II-10]
Oxacillin MIC (S. aureus 43300 (MRSA); [4]): 32 µg/mL
Fold Reduction (S. aureus 43300 (MRSA); [5]): 1

Compound: CCCCCNC1=Nc2ccccc2Oc2ccc(Cl)cc21 [II-8]
Oxacillin MIC (S. aureus 43300 (MRSA); [4]): 32 µg/mL
Fold Reduction (S. aureus 43300 (MRSA); [5]): 1

Now from value to compound, other results behind:

IC50 ([2]; 30 h): 78.9 µM
Oxacillin MIC (S. aureus 43300 (MRSA); [6]): 2 µg/mL
MIC [3]: 125 µM
Compound: Cc1cc2cccnc2c2ncccc12 [Compound V-8]
Fold Reduction (S. aureus 43300 (MRSA); [7]): 16

IC50 ([2]; 30 h): 38.5 µM
Oxacillin MIC (S. aureus 43300 (MRSA); +100 μM compound, S. aureus 43300 (MRSA)): 32 µg/mL
MIC [3]: 1000 µM
Compound: Clc1ccc2ccc3cccnc3c2n1 [Compound V-5]
Fold Reduction (S. aureus 43300 (MRSA); oxacillin MIC, +100 μM compound, S. aureus 43300 (MRSA)): 1

Oxacillin MIC (S. aureus 43300 (MRSA); [4]): 8 µg/mL
Compound: C=CCN1c2ccccc2CCc2ccc(Cl)cc21 [II-5]
Fold Reduction (S. aureus 43300 (MRSA); [5]): 4

IC50 [2, 8]: 26.9 µM
Compound: CCCCCN1CCC(=C2c3ccc(Cl)cc3CCc3cccnc32)CC1 [III-2, 8-chloro-11-(1-pentylpiperidin-4-ylidene)-6,11-dihydro-5H-benzo[5,6]cyclohepta[1,2-b]pyridine]
Fold Reduction (S. aureus 43300 (MRSA); [5]): 32

IC50 [2, 8]: > 80 µM
Compound: CCCCN1CCC(=C2c3ccc(Cl)cc3CCc3cccnc32)CC1 [III-1, 11-(1-butylpiperidin-4-ylidene)-8-chloro-6,11-dihydro-5H-benzo[5,6]cyclohepta[1,2-b]pyridine]
Fold Reduction (S. aureus 43300 (MRSA); [5]): 1

Oxacillin MIC (S. aureus 43300 (MRSA); [4]): 16 µg/mL
Compound: O=C1CCCNc2cc(Cl)ccc21 [Compound I-6]
Fold Reduction (S. aureus 43300 (MRSA); [5]): 1

IC50 [2, 8]: > 50 µM
Compound: Clc1ccc2c(c1)CCc1cccnc1C2=C1CCN(Cc2ccccc2)CC1 [III-4]
Fold Reduction (S. aureus 43300 (MRSA); [5]): 1

Oxacillin MIC (S. aureus 43300 (MRSA); [4]): 16 µg/mL
Compound: Cc1ccnc2c1NC(=O)c1cccnc1N2C1CC1 [Compound I-1]
Fold Reduction (S. aureus 43300 (MRSA); [5]): 1
